In the supplement of paper PMC11368000:

How the values were obtained:
Conditions in all cases: exposure time: 90 min
1518 [1] = donor line of iPSC-derived cardiomyocytes; test: POD (EC10) for decrease in total cell number (cytotoxicity) vs vehicle; higher = less potent (higher point of departure)
Protocol: (§1)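 Human iPSC-derived cardiomyocytes from 16 donors were exposed for 90 min at 37 °C to each PFAS at 0.1, 1, 10 and 100 µM in 0.5% DMSO, 384-well plates. Kinetic Ca2+ flux (FLIPR) and Hoechst nuclei counts were normalised to vehicle wells and fitted with a hierarchical Bayesian Hill model to give donor-specific PODs: EC05 for beat-rate increase or decrease and for decay-to-rise ratio increase (QT proxy), EC95 for peak-frequency loss (asystole), EC10 for total cell number loss. 0.03 µM is the lower bound.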

1392 [2] = donor line of iPSC-derived cardiomyocytes; test: as above
Protocol: as §1

1434 [3] = donor line of iPSC-derived cardiomyocytes; test: as above
Protocol: as §1

30145 [4] = donor line of iPSC-derived cardiomyocytes; test: as above
Protocol: as §1

20032 = donor line of iPSC-derived cardiomyocytes; test: POD (EC95) for loss of peak frequency (asystole) vs vehicle; higher = less potent (higher point of departure)
Protocol: as §1

30171 = donor line of iPSC-derived cardiomyocytes; test: as above
Protocol: as §1

1535 = donor line of iPSC-derived cardiomyocytes; test: as above
Protocol: as §1

1518 [5] = test: as above
Protocol: as §1

11235 = donor line of iPSC-derived cardiomyocytes; test: as above
Protocol: as §1

1392 [6] = test: as above
Protocol: as §1

1309 = donor line of iPSC-derived cardiomyocytes; test: as above
Protocol: as §1

1083 = donor line of iPSC-derived cardiomyocytes; test: as above
Protocol: as §1

1516 = donor line of iPSC-derived cardiomyocytes; test: as above
Protocol: as §1

1565 = donor line of iPSC-derived cardiomyocytes; test: as above
Protocol: as §1

20084 = donor line of iPSC-derived cardiomyocytes; test: as above
Protocol: as §1

1368 = donor line of iPSC-derived cardiomyocytes; test: as above
Protocol: as §1

1434 [7] = test: as above
Protocol: as §1

1531 = donor line of iPSC-derived cardiomyocytes; test: as above
Protocol: as §1

1118 = donor line of iPSC-derived cardiomyocytes; test: as above
Protocol: as §1

30145 [8] = test: as above
Protocol: as §1

Row | SMILES | POD vs vehicle 1518 [1] [µM] | POD vs vehicle 1392 [2] [µM] | POD vs vehicle 1434 [3] [µM] | POD vs vehicle 30145 [4] [µM] | POD vs vehicle 20032 [µM] | POD vs vehicle 30171 [µM] | POD vs vehicle 1535 [µM] | POD vs vehicle 1518 [5] [µM] | POD vs vehicle 11235 [µM] | POD vs vehicle 1392 [6] [µM] | POD vs vehicle 1309 [µM] | POD vs vehicle 1083 [µM] | POD vs vehicle 1516 [µM] | POD vs vehicle 1565 [µM] | POD vs vehicle 20084 [µM] | POD vs vehicle 1368 [µM] | POD vs vehicle 1434 [7] [µM] | POD vs vehicle 1531 [µM] | POD vs vehicle 1118 [µM] | POD vs vehicle 30145 [8] [µM]
1 | O=S(=O)(O)CCC(F)(F)C(F)(F)C(F)(F)C(F)(F)C(F)(F)C(F)(F)F [6:2 Fluorotelomer sulfonic acid] | > 100 | > 100 | > 100 | > 100 | > 100 | > 100 | > 100 | > 100 | > 100 | > 100 | > 100 | > 100 | > 100 | > 100 | > 100 | > 100 | > 100 | > 100 | > 100 | > 100
2 | O=C(O)CCC(F)(F)C(F)(F)C(F)(F)C(F)(F)C(F)(F)F [2H,2H,3H,3H-Perfluorooctanoic_acid] | > 100 | > 100 | > 100 | > 100 | > 100 | 71.8 | > 100 | > 100 | 59.9 | 73 | > 100 | > 100 | 75.1 | > 100 | 66.4 | > 100 | 90.8 | 92.7 | 67.4 | 77.8
3 | NC(=O)C(F)(F)C(F)(F)C(F)(F)C(F)(F)F [Nonafluoropentanamide] | > 100 | > 100 | > 100 | > 100 | > 100 | > 100 | > 100 | > 100 | > 100 | > 100 | > 100 | > 100 | > 100 | > 100 | > 100 | > 100 | > 100 | > 100 | 84.9 | > 100
4 | O=C(O)C(F)(F)C(F)(F)OC(F)(F)F [Perfluoro-3-methoxypropanoic_acid] | > 100 | > 100 | > 100 | > 100 | > 100 | > 100 | > 100 | > 100 | > 100 | > 100 | > 100 | > 100 | > 100 | > 100 | > 100 | > 100 | > 100 | > 100 | > 100 | > 100
5 | O=C(O)C(F)(F)C(F)(F)C(F)(F)OC(F)(F)F [Perfluoro(4-methoxybutanoic)_acid] | > 100 | > 100 | > 100 | > 100 | > 100 | > 100 | > 100 | > 100 | > 100 | > 100 | > 100 | > 100 | > 100 | > 100 | > 100 | > 100 | > 100 | > 100 | > 100 | > 100
6 | O=S(=O)(O)CCC(F)(F)C(F)(F)C(F)(F)C(F)(F)F [4:2 Fluorotelomer sulfonic acid] | > 100 | > 100 | > 100 | > 100 | > 100 | > 100 | > 100 | > 100 | > 100 | > 100 | > 100 | > 100 | > 100 | > 100 | > 100 | > 100 | > 100 | > 100 | > 100 | > 100
7 | O=P(O)(O)CCC(F)(F)C(F)(F)C(F)(F)C(F)(F)C(F)(F)C(F)(F)C(F)(F)C(F)(F)F [((Perfluorooctyl)ethyl)phosphonic_acid] | > 100 | > 100 | > 100 | > 100 | > 100 | > 100 | > 100 | > 100 | > 100 | > 100 | > 100 | > 100 | > 100 | > 100 | > 100 | > 100 | > 100 | > 100 | > 100 | > 100
8 | OCCC(F)(F)C(F)(F)C(F)(F)C(F)(F)C(F)(F)C(F)(F)F [6:2 Fluorotelomer alcohol] | > 100 | > 100 | > 100 | > 100 | > 100 | > 100 | > 100 | > 100 | > 100 | > 100 | > 100 | > 100 | > 100 | > 100 | > 100 | > 100 | > 100 | > 100 | > 100 | > 100
9 | O=C(O)C(F)(F)C(F)(F)F [Perfluoropropanoic_acid] | > 100 | > 100 | > 100 | > 100 | > 100 | > 100 | > 100 | > 100 | > 100 | > 100 | > 100 | > 100 | > 100 | > 100 | > 100 | > 100 | > 100 | > 100 | > 100 | > 100
10 | O=C(O)C(F)(F)C(F)(F)C(F)(F)F [Perfluorobutanoic_acid] | > 100 | > 100 | > 100 | > 100 | > 100 | > 100 | > 100 | > 100 | > 100 | > 100 | > 100 | > 100 | > 100 | > 100 | > 100 | > 100 | > 100 | > 100 | > 100 | > 100
